Experimental findings from patent US20180284095A1, “BIOMARKERS ASSOCIATED WITH LSD1 INHIBITORS AND USES THEREOF” (Oryzon Genomics, S.A., priority 2015, published 2018) are described below.

As usually defined, the IC50 is the point on the concentration scale where inhibition reaches its midpoint.

The target of assay [1] is T1, Human recombinant monoamine oxidase MAO-B (Homo sapiens, UniProt P27338).
T1 construct: purchased Sigma Aldrich
T1 sequence (P27338 1-520): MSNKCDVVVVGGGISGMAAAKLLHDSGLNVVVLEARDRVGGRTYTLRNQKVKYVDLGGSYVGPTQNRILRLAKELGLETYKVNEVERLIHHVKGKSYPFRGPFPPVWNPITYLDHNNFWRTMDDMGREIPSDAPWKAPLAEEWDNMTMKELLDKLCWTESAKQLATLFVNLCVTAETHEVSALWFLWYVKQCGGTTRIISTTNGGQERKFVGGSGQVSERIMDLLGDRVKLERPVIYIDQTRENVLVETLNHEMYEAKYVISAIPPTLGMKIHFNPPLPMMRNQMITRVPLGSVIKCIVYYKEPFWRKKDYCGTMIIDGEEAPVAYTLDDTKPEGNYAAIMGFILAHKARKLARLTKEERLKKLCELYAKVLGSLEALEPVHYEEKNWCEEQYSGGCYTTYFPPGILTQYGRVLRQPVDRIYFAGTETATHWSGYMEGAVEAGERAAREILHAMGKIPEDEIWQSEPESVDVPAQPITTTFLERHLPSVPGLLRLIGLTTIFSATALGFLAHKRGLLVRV
Put plainly: MAO-B fluorescence-based kynuramine assay. Type of assay: biochemical. An excerpt:
MAOs catalyze the oxidative deamination of primary, secondary and tertiary amines. In order to monitor MAO enzymatic activities and/or their inhibition rate by inhibitor(s) of interest, a fluorescence-based (inhibitor)-screening assay was set up. 3-(2-Aminophenyl)-3-oxopropanamine (kynuramine dihydrobromide, Sigma Aldrich), a non fluorescent compound was chosen as a substrate. Kynuramine is a non-specific substrate for both MAO-A and MAO-B activities. While undergoing oxidative deamination by MAO activities, kynuramine is converted into 4-hydroxyquinoline (4-HQ), a resulting fluorescent product.
The monoamine oxidase activity was estimated by measuring the conversion of kynuramine into 4-hydroxyquinoline. Assays were conducted in 96-well black plates with clear bottom (Corning) in a final volume of 100 μL. […]
After leaving the enzyme(s) interacting with the inhibitor, KM of kynuramine was added to each reaction for MAO-B and MAO-A assay respectively, and the reaction was left for 1 hour at 37° C. in the dark. […] The conversion of kynuramine to 4-hydroxyquinoline, was monitored by fluorescence (excitation at 320 nm, emission at 360 nm) using a microplate reader (Infinite 200, Tecan). Arbitrary units were used to measure levels of fluorescence produced in the absence and/or in the presence of inhibitor.
The IC50 values of each inhibitor were calculated with GraphPad Prism Software.

Assay [2] relates to S100A9. Briefly: Microarray gene expression, brain of Hsd:ICR (CD1) mice, MTD study (Example 6). Type of assay: in vivo, mouse. The note with it: brain day 5, male CD1 mice pool. The procedure: (§1) Total RNA was extracted from samples using the RNeasy extraction kit (Qiagen). The quality and concentration of the RNA was analyzed using the Agilent 2100 bioanalyzer and NanoDrop™ ND-1000 (Thermo Scientific). Samples with RNA integrity number (RIN)<6.0 were discarded. Total RNA (0.5 μg) amplification and labelling with Cy3 or Cy5 was carried out using the Eberwein mRNA amplification procedure (Van Gelder et al, Proc Natl Acad Sci USA 1990, 87:1663-1667) employing the MessageAmp™ aRNA amplification kit from Ambion (Applied Biosystems) following the manufacturer's instructions with minor modifications. As hybridization controls, plant mRNAs were transcribed from a plasmid containing the Zea mays Xet (xyloglucan endo-transglycosylase) cDNA and from a plasmid containing the Zea mays Zmmyb42 cDNA, independently prepared Cy3 and Cy5 labelled aRNA from these two RNAs using the Eberwein mRNA amplification procedure (as disclosed in Cerdà et al, Gen Comp Endocrinol 2008, 156:470-481).
(§2) The Cy3- and Cy5-labelled cRNAs and spikes were combined and hybridized to the microarray described in Example 2.6 for 17 h at 60° C. using Agilent's gaskets G2534-60002, G2534A hybridization chambers and DNA Hybridization Oven G2545A, according to the manufacturer's instructions. More specifically, equal amounts of Cy3 and Cy5 labeled Xet aRNA as well as equal amounts of Cy3 and Cy5 labeled Zmmyb42 aRNA were spiked into each mixture hybridized to the array. Arrays were washed and raw data were obtained using Agilent's DNA Microarray Scanner G2505B and Feature Extraction software (v10.1). The raw fluorescence intensity data were processed using applicant's proprietary software, and consists in the following operations:
(§3) Data normalization was carried out by an improved version of the nonlinear Q-splines normalization method (Workman et al., Genome Biol 2002, 3(9):research0048.1-0048.16). Normalization results were presented graphically as MA plots, as first described by Dudoit et al (Dudoit et al, Statistica Sinica, 2002, 12:111-139). Each point corresponds to a probe of the DNA array. M values (vertical axis) are the log-differential expression ratios. A values (horizontal axis) are the log-intensities of the spots. M and A are calculated from the Cy5 and Cy3 intensity values as of each spot. The DNA Array data is normalized using an improved version of non-linear Q-Splines normalization described by Workman et al., Genome Biol 2002, 3(9):research0048.1-0048.16. This process is useful to correct the deviation of the M values from the statistical assumption that most of the spots have M=0 in MA plots. […]. The data used to calculate the normalization fitting curve is the totality of the raw measurement dataset, excluding the signals for the probes for the spiked-in plant RNA controls and negative controls. In order to be able to normalize properly the data among all the experiments, the probe-set must include an important group of genes that should have no change (M=0) in the experiment. The normalization function is then applied to all the data, including controls.
(§4) Normalized and log-transformed data were used to calculate log 2 (sample/control) and Fold Change (FC) values. No background subtraction was applied to the signal intensity values during data processing, permitting robust selection of differentially expressed genes with low expression levels at the cost of potential sub-estimation of change when intensity levels are close to the array background level.
(§5) Male Hsd:ICR (CD1®) mice were maintained in air- and temperature-controlled cages with regular supply of water and food. A maximum of 3 mice were raised per cage. Three mice were assigned to each group. Before the first administration, each mouse was labeled and weighed. Test compounds were administered orally using 1 ml syringes using animal feeding needles proper for mice at 10 ml/kg as follows. […]

Assay [3] concerns S100A8. Described as above. Type of assay: in vivo, mouse. The note with it: brain day 5, male CD1 mice pool. The procedure: as §1, §2, §3, §4, §5
[4] abbreviates: 3 mg/kg oral x5 days vs vehicle.
[5] abbreviates: 10 mg/kg oral x5 days vs vehicle.
Where [6] appears, read: 30 mg/kg oral x5 days vs vehicle.
The mark [7] stands for this setting: 100 mg/kg oral x5 days vs vehicle.

In the case of `NC(=O)CN[C@H]1C[C@@H]1c1ccc(OCc2ccccc2)cc1` (racemic) [Compound 3, 2-(((trans)-2-(4-(benzyloxy)phenyl)cyclopropyl)amino)acetamide], the IC50 in assay [1] is 0.07 µM.

Regarding `N[C@H]1CCN(CCN[C@H]2C[C@@H]2c2ccc(-c3cccc(C(F)(F)F)c3)cc2)C1` (racemic) [Compound 5, (S)-1-(2-(((trans)-2-(3′-(trifluoromethyl)-[1,1′-biphenyl]-4-yl)cyclopropyl)amino)ethyl)pyrrolidin-3-amine], the concentration for half-maximal inhibition (IC50) in assay [1] amounted to 5.1 µM.

Take “(+) 5-((((trans)-2-(4-(benzyloxy)phenyl)cyclopropyl)amino)methyl)-1,3,4-oxadiazol-2-amine [Compound 2]”: the “Hybridization signal sample_Cy5 S100A9” value in assay [2] (3 mg/kg oral x5 days) was 291.855; in assay [2] (10 mg/kg oral x5 days) it was 117.175; in assay [2] (30 mg/kg oral x5 days), 149.542; in assay [2] (100 mg/kg oral x5 days) it was 45.3442. For the same compound, the “log2 (sample/control) S100A9” value in assay [2] (setting [4]) was −0.2512; in assay [2] (setting [5]), −1.515; in assay [2] (setting [6]) it was −1.285; in assay [2] (setting [7]) it was −2.876. The “Hybridization signal sample_Cy5 S100A8” value was found to be 126.363 in assay [3] (3 mg/kg oral x5 days), 69.9912 in assay [3] (10 mg/kg oral x5 days), 80.188 in assay [3] (30 mg/kg oral x5 days) and 39.3591 in assay [3] (100 mg/kg oral x5 days). Besides, the “log2 (sample/control) S100A8” value is −0.1015 in assay [3] (setting [4]), −1.156 in assay [3] (setting [5]), −1.029 in assay [3] (setting [6]) and −1.921 in assay [3] (setting [7]).

Consider “(−) 5-((((trans)-2-(4-(benzyloxy)phenyl)cyclopropyl)amino)methyl)-1,3,4-oxadiazol-2-amine [Compound 1]”, for which the “Hybridization signal sample_Cy5 S100A9” value in assay [2] (3 mg/kg oral x5 days) is 97.9225; in assay [2] (10 mg/kg oral x5 days) it was 46.2723; in assay [2] (30 mg/kg oral x5 days), 45.4319; in assay [2] (100 mg/kg oral x5 days), 56.7063. For the same compound, the “log2 (sample/control) S100A9” value in assay [2] (setting [4]) is −1.935; in assay [2] (setting [5]) it was −2.962; in assay [2] (setting [6]), −2.9408; in assay [2] (setting [7]), −2.792. The “Hybridization signal sample_Cy5 S100A8” value came out at 55.2994 in assay [3] (3 mg/kg oral x5 days), 39.6385 in assay [3] (10 mg/kg oral x5 days), 40.5977 in assay [3] (30 mg/kg oral x5 days) and 40.4596 in assay [3] (100 mg/kg oral x5 days). Also, the “log2 (sample/control) S100A8” value in assay [3] (setting [4]) was −1.452; in assay [3] (setting [5]) it was −1.81; in assay [3] (setting [6]), −1.859; in assay [3] (setting [7]) it was −1.786.
